Laboratory results as given in the supplement of paper PMC10307832.

Columns and labels:
Assay in all cases: relative viability (nuclei count vs DMSO), 5 days (fraction); higher = more cells survive
Cediranib + Linsitinib = compound: COc1cc2c(Oc3ccc4[nH]c(C)cc4c3F)ncnc2cc1OCCCN1CCCC1 [Cediranib] + C[C@]1(O)C[C@@H](c2nc(-c3ccc4ccc(-c5ccccc5)nc4c3)c3c(N)nccn32)C1 [Linsitinib] (partner 1 µM)
Procedure, shortened: (§1)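 Cells from lung cancer lines were seeded into 1536-well plates and, one day later, dosed by pin tool. Treatments were either a single drug or a fixed dose of an anchor drug with five library-drug doses (not always all listed) in √10 steps. After 5 days, nuclei were stained in a one-step fixation (final 0.05% Triton X-100, 1% formaldehyde, 1 ug/ml Hoechst) and counted on 4× images, and relative viability is the treated-to-vehicle nuclei ratio, as the median of duplicate plates.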

Decitabine + OSI-027 = compound: Nc1ncn([C@H]2C[C@H](O)[C@@H](CO)O2)c(=O)n1 [Decitabine] + COc1cccc2cc(-c3nc([C@H]4CC[C@H](C(=O)O)CC4)n4ncnc(N)c34)[nH]c12 [OSI-027] (partner 0.5 µM)
Procedure, shortened: as §1

Decitabine + Dasatinib = compound: Nc1ncn([C@H]2C[C@H](O)[C@@H](CO)O2)c(=O)n1 [Decitabine] + Cc1nc(Nc2ncc(C(=O)Nc3c(C)cccc3Cl)s2)cc(N2CCN(CCO)CC2)n1 [Dasatinib] (partner 0.075 µM)
Procedure, shortened: as §1

Decitabine + Pemetrexed = compound: Nc1ncn([C@H]2C[C@H](O)[C@@H](CO)O2)c(=O)n1 [Decitabine] + Nc1nc2[nH]cc(CCc3ccc(C(=O)N[C@@H](CCC(=O)O)C(=O)O)cc3)c2c(=O)[nH]1 [Pemetrexed] (partner 0.2 µM)
Procedure, shortened: as §1

In the case of UMC-11, the relative viability (Cediranib + Linsitinib; first compound 0.04 µM) is reported as 1.06, the relative viability (Cediranib + Linsitinib; first compound 0.1265 µM) is reported as 1.02 and the relative viability (Cediranib + Linsitinib; first compound 0.4 µM) is reported as 0.955. For the same cell line, the relative viability (Cediranib + Linsitinib; first compound 1.265 µM) was 0.957, the relative viability (Cediranib + Linsitinib; first compound 4 µM) was 0.934 and the relative viability (Decitabine + OSI-027; first compound 0.04 µM) was 0.46. The relative viability (Decitabine + OSI-027; first compound 0.1265 µM) was 0.0004, the relative viability (Decitabine + OSI-027; first compound 0.4 µM) was 0.411 and the relative viability (Decitabine + OSI-027; first compound 1.265 µM) was 0.316. It also gave a relative viability (Decitabine + OSI-027; first compound 4 µM) of 0.363, a relative viability (Decitabine + Dasatinib; first compound 0.04 µM) of 0.496 and a relative viability (Decitabine + Dasatinib; first compound 0.1265 µM) of 0.442. The relative viability (Decitabine + Dasatinib; first compound 0.4 µM) was 0.293, the relative viability (Decitabine + Dasatinib; first compound 1.265 µM) was 0.335 and the relative viability (Decitabine + Dasatinib; first compound 4 µM) was 0.327. For the same cell line, the relative viability (Decitabine + Pemetrexed; first compound 0.04 µM) was 0.691, the relative viability (Decitabine + Pemetrexed; first compound 0.1265 µM) was 0.563 and the relative viability (Decitabine + Pemetrexed; first compound 0.4 µM) was 0.406. It also gave a relative viability (Decitabine + Pemetrexed; first compound 1.265 µM) of 0.358 and a relative viability (Decitabine + Pemetrexed; first compound 4 µM) of 0.351.
